Oligonucleotides are written 5' to 3', each unit as a sugar letter and its base; * is a phosphorothioate linkage, no mark a phosphodiester; rarer units and linkages stand in square brackets, end groups in braces. Plain capitals give the bases only. e = 2'-O-(2-methoxyethyl) (MOE); [5mC] = 5-methylcytosine; d = 2'-deoxy (DNA)
How the values were obtained:
[1] = test system: Kallikrein mRNA; test: Liver RT-PCR analysis of kallikrein mRNA (Example 9); assay type: in vivo, mouse; details: for Percent inhibition of kallikrein mRNA expression compared to the untreated PBS control: all groups ISIS 461756 12.5 mg/kg twice a week, ASO 40 mg/kg or PBS s.c. twice a week 3 weeks
Protocol: (§1) One group of 8 mice was treated with 40 mg/kg ISIS 482584 administered subcutaneously twice a week for 3 weeks (weekly dose of 80 mg/kg). A second group of 8 mice was treated with 40 mg/kg of the control oligonucleotide, ISIS 141923, administered subcutaneously twice a week for 3 weeks (weekly dose of 80 mg/kg). A third group of 8 mice was treated with PBS administered subcutaneously twice a week for 3 weeks. On day 14, all the groups were treated with 12.5 mg/kg ISIS 461756 administered subcutaneously twice a week for 3 weeks (weekly dose of 25 mg/kg). A control group of mice was treated with PBS administered subcutaneously twice a week for 3 weeks but was not administered ISIS 461756.
(§2) At the end of the treatment period, all the groups were injected with 30 mg/kg of Evans Blue solution into the tail vein. The mice were sacrificed 30 min after the Evans Blue solution administration and colons, feet, ears, and intestines were harvested. The liver was also harvested for RNA analysis.
RNA was isolated from the liver for RT-PCR analysis of C1-INH and kallikrein mRNAs. The primer probe set for C1-INH is RTS3218 (forward sequence […], designated herein as SEQ ID NO: 24; reverse sequence […], designated herein as SEQ ID NO: 25; probe sequence […], designated herein as SEQ ID NO: 26). The primer probe set for kallikrein is RTS3287 (forward sequence […], designated herein as SEQ ID NO: 27; reverse sequence […], designated herein as SEQ ID NO: 28; probe sequence […], designated herein as SEQ ID NO: 29). The results are presented in Table 20 as percent inhibition compared to the PBS control not treated with ISIS 461756.

[2] = test system: C1-INH mRNA; test: Liver RT-PCR analysis of C1-INH mRNA (Example 9); assay type: in vivo, mouse
Protocol: as §1, §2
RNA was isolated from the liver for RT-PCR analysis of C1-INH and kallikrein mRNAs. The primer probe set for C1-INH is RTS3218 (forward sequence […], designated herein as SEQ ID NO: 24; reverse sequence […], designated herein as SEQ ID NO: 25; probe sequence […], designated herein as SEQ ID NO: 26). […]

[3] = test system: Kallikrein mRNA; test: Kallikrein mRNA and protein expression in mice after subcutaneous ASO (Example 1); assay type: in vivo, mouse; details: 3 weeks
Protocol: C57BL/6J-Tyrc-2J mice were treated with 2.5 mg/kg, 5.0 mg.kg, 10.0 mg/kg, 20.0 mg/kg, 40.0 mg/kg, or 80.0 mg/kg (corresponding to 5.0 mg/kg, 10.0 mg/kg, 20.0 mg/kg, 40 mg/kg, 80 mg/kg, or 160 mg/kg per week) of ISIS 482584 administered subcutaneously twice a week for 3 weeks. […] Kallikrein mRNA was reduced by greater than 90% inhibition at a dose of 160 mg/kg per week.

[4] = test system: high molecular weight kininogen (HMWK); test: Western blot quantification of HMWK and HMWK cleavage product by densitometer (Example 5); assay type: in vivo, mouse; details: vs PBS control, dose-dependent
Protocol: All the groups were then injected with 30 mg/kg of Evans Blue solution in the tail vein. The mice were sacrificed 30 min after the Evans Blue solution administration and colons, feet, and ears were harvested and examined for permeability defects. Blood samples were taken through cardiac puncture.
Treatment with kallikrein antisense oligonucleotide results in stabilization of HMWK. Thus, vascular permeability is reduced in ISIS 482584-treated groups in a dose-dependent manner. […] Thus, reduced HMWK is caused by kallikrein cleavage of HMWK into cleavage products (including bradykinin and HKa). Data are presented in Intensity Units as measured by densitometer.

[5] = test system: mouse kallikrein mRNA; test: Antisense inhibition of murine kallikrein mRNA in mouse primary hepatocytes (Example 1); assay type: cell-based
Protocol: Antisense oligonucleotides targeting a murine kallikrein nucleic acid were tested for their effects on kallikrein mRNA in vitro. Cultured mouse primary hepatocytes at a density of 10,000 cells per well were transfected using Cytofectin reagent with 12.5 nM, 25 nM, 50 nM, 100 nM, or 200 nM of antisense oligonucleotide. After a treatment period of approximately 24 hours, RNA was isolated from the cells and mouse kallikrein mRNA levels were measured by quantitative real-time PCR using the murine primer probe set RTS3313 (forward sequence […], designated herein as SEQ ID NO: 21; reverse sequence […], designated herein as SEQ ID NO: 22; probe sequence […], designated herein as SEQ ID NO: 23). Kallikrein mRNA levels were adjusted according to total RNA content, as measured by RIBOGREEN.
The chimeric antisense oligonucleotides were designed as 5-10-5 MOE gapmers. The gapmers are 20 nucleotides in length, wherein the central gap segment is comprised of ten 2′-deoxynucleosides and is flanked on both sides (in the 5′ and 3′ directions) by wings comprising five nucleosides each. Each nucleoside in the 5′ wing segment and each nucleoside in the 3′ wing segment has a 2′-MOE modification. The internucleoside linkages throughout each gapmer are phosphorothioate (P═S) linkages. All cytosine residues throughout each gapmer are 5-methylcytosines.
ISIS 482584 ([…]; incorporated herein as SEQ ID NO: 40), which was one of the antisense oligonucleotides tested in the assay, is targeted to SEQ ID NO: 11 (GENBANK Accession No. NM_008455.2) with a target start site of 1586 and a target stop site of 1605.

[6] = test system: mice; test: Evans Blue vascular permeability induced by ISIS 461756 (Example 9); details: mouse, in vivo
Protocol: Vascular permeability induced by ISIS 461756, an antisense oligonucleotide which targets murine C1 inhibitor mRNA, increases vascular permeability in mice and replicates the pathology of hereditary angioedema. The effect of ISIS 482584 on this model was evaluated.
as §1
At the end of the treatment period, all the groups were injected with 30 mg/kg of Evans Blue solution into the tail vein. […]
The harvested tissues from the feet, colon, and intestines were placed in formamide solution overnight to leach out the Evans Blue dye. […] The color intensity of the dye-infused formamide solution was then measured at OD600nm. […]

Row | Substance | Percent inhibition of kallikrein mRNA expression compared to the untreated PBS control [1] [%] | C1-INH mRNA expression [2] | Kallikrein mRNA inhibition ([3]; 160 mg/kg per week s.c.) | Kallikrein mRNA and protein expression ([3]; 5.0-160 mg/kg per week s.c.) | kallikrein expression [1] | HMWK levels [4] | % inhibition ([5]; 12.5 nM) [%] | % inhibition ([5]; 25.0 nM) [%] | % inhibition ([5]; 50.0 nM) [%] | % inhibition ([5]; 100.0 nM) [%] | % inhibition ([5]; 200.0 nM) [%] | vascular permeability induced by ISIS 461756 [6]
1 | ISIS 141923: control oligonucleotide, a 5-10-5 MOE gapmer with no known murine target; CCTTCCCTGAAGGTTCCTCC (SEQ ID NO: 42) (sugars from the 5' end e5 d10 e5, backbone and methylation of C not given here) [reference compound] | 0 |  |  |  |  |  |  |  |  |  |  | 
2 | ISIS 461756: 5-10-5 MOE gapmer antisense oligonucleotide which targets murine C1 inhibitor mRNA; AAAGTGGTTGATACCCTGGG (SEQ ID NO: 41) (sugars from the 5' end e5 d10 e5, backbone and methylation of C not given here) [reference compound] | 0 | significantly reduced |  |  |  |  |  |  |  |  |  | 
3 | ISIS 482584: 5-10-5 MOE gapmer antisense oligonucleotide targeting murine kallikrein; GGCATATTGGTTTTTGGAAT (SEQ ID NO: 40) (antisense eG*eG*e[5mC]*eA*eT*dA*dT*dT*dG*dG*dT*dT*dT*dT*dT*eG*eG*eA*eA*eT) | 78 |  | greater than 90% | reduced in a dose dependent manner | significantly reduced | higher levels of HMWK | 0 | 36 | 17 | 60 | 83 | prevented vascular permeability
